Read-outs that look alike come from different tables or passages of the source. Some results are limits rather than exact numbers.

Data set [1] concerns male and female beagle dogs. The method, then: In the GLP repeat dose dog study, LB-100 was administered by intravenous injection (slow bolus push) at dose levels of 0.15, 0.30, and 0.75 mg/kg daily for 5 consecutive days. […] The dosage level was reduced to 0.50 mg/kg/day for the 4th and 5th doses (study Days 3 and 4).
Multilead (I, II, III, aVR, aVL, aVF, and V2) ECGs were recorded for all animals prior to randomization (Day−8) and for all surviving animals on Day 4 (recorded approximately 2 to 4 hours following dose administration) and Day 27.
Blood pressure (systolic, diastolic, and mean arterial pressure) data were recorded for all animals once during the pretest period (Day−8) and for all surviving animals on study Day 4 (recorded approximately 2 to 4 hours following dose administration) and Day 27.

The next data set relates to male Fischer rats. Nature of the data set: Non-GLP dose ranging toxicology study in rats, daily IV infusion for 4 days. The conditions noted are these: for MTD: male Fischer rats, IV daily for 4 days. The method, then: In a non-GLP dose ranging study in male Fischer rats, LB-100 was administered by daily intravenous (IV) infusion at 0.5, 0.75 and 1.5 mg/kg/day for 4 consecutive days.

For another data set, the system named is solid tumors. Conditions: human, in vivo.
The test system of the next data set is beagle dogs. Nature of the data set: Non-GLP dose ranging study in dogs, IV every 4 days x 4 doses. It is filed as in vivo, dog. The text has this: Single cell necrosis was observed throughout the gastrointestinal tract.
Data set [2] can be described thus: Solubility and stability of LB-100 solution. It is filed as physicochemical. The conditions noted are these: for stability: formulated in monosodium glutamate. An excerpt: LB-100 is a water soluble enantiomeric zwitterion provided as a sterile solution for intravenous administration.
Phosphate buffered saline (PBS) was used as the vehicle for LB-100 administration in preclinical efficacy studies and sodium bicarbonate 4.2% for injection was used as the vehicle for GLP toxicity studies.

Data set [3] concerns male and female Sprague Dawley rats. Nature of the data set: GLP repeat-dose study in rats, daily IV slow bolus for 5 days. The conditions noted are these: for C0 / AUClast: 0.75 mg/kg/day.
The subject of a further data set is del(5q) clones. Conditions: del(5q) patients; cited from earlier work.
A further data set deals with del(5q) MDS. Conditions: cited from earlier work; for median overall survival: long term follow up.
[4] abbreviates: MDS-003 multicenter Phase 2 trial.

With `CN1CCN(C(=O)C2C(C(=O)O)[C@H]3CC[C@@H]2O3)CC1` (mixture of isomers) [LB-100, 3-{4methylpiperazine-carbonyl}-7-oxalobicyclo[2.2.1]heptane-2-carboxylic acid], the tolerability result in data set [1] (0.15 mg/kg/day) was “well tolerated”. Besides, in data set [1] (0.75 mg/kg/day group, prior to fourth dose), the test article-related lethality is on record as 2 of 10. Moreover, the “Highest Non-Severely Toxic Dose (HNSTD)” value in data set [1] (beagle dogs, IV daily for 5 consecutive days) was 0.15 mg/kg. Also, in data set [1] (dog, in vivo), the ECGs entry is “within normal limits”, the blood pressure result is “unaffected”, the “hematology or coagulation parameters” value was “no residual effects” and the urinalysis parameters entry is reported as “no test article-related changes”. Besides, the nephrosis severity entry with male Fischer rats (0.75 mg/kg/day) is recorded as “mild”. The “no-observed-adverse-effect-level (NOAEL)” value in the data set with male Fischer rats (0.5, 0.75 and 1.5 mg/kg/day IV for 4 days) is on record as “not established”. The heart toxicity result in the data set on male Fischer rats (0.75 and 1.5 mg/kg/day groups) is recorded as “epicardial hyperplasia with inflammation primarily on the epicardium of the atria”. For the same compound, the unscheduled deaths entry in the data set on male Fischer rats (any of the treatment groups (0.5, 0.75, 1.5 mg/kg/day)) is reported as “no unscheduled deaths”. This compound returned an MTD in the data set with male Fischer rats of 0.75 mg/kg/day. In addition, in the data set with male Fischer rats (surface area equivalent), the MTD result is reported as “about 4.5 mg/m^2”. In addition, in the data set on male Fischer rats (rat, in vivo, iv), the dose-limiting toxicities result was “Kidney, heart, femoral bone, liver and urinary bladder toxicity”. Also, in the data set with solid tumors, the “cardiac or myelosuppressive toxicities” value is “no cardiac or myelosuppressive toxicities observed”, the dose limiting toxicities result is reported as “no dose limiting toxicities”, the “plasma concentrations of LB-100” value is listed as “greater than 1 μM” and the tolerability entry is given as “well tolerated”. In the data set with beagle dogs (0.1, 0.25, 0.5, 1.0 mg/kg), the survival entry is given as “no LB-100-related effects on survival”. For the same compound, the “no observed-effect level (NOEL)” value in the data set with beagle dogs (beagle dogs, IV every 4 days x 4 doses) is 0.25 mg/kg. For the same compound, in the data set with beagle dogs (dog, in vivo, 1 mg/kg), the signs of toxicity entry was “almost no signs of toxicity”. Besides, in data set [2], the water solubility entry is “water soluble”. The stability entry in data set [2] (pH 10.5, at refrigerated temperatures) is given as “at least 8 hours”. In addition, the stability entry in data set [2] (pH 10.5, at −20° C.) is “stable for months”. In data set [2] (in solution), the “racemization of separated enantiomers” value is “racemize rapidly in solution”. Further, the C0 in data set [3] (females, study Day 4) came to 2347 ng/mL. Further, in data set [3] (males, study Day 4), the AUClast was 596 ng·h/mL and the C0 stood at 1804 ng/mL. For the same compound, the “heart findings (epicardium and subepicardium of the atrium)” value in data set [3] (0.5, 0.75, 1.25 mg/kg/day males and 1.25 mg/kg/day females) was “Minimal to mild subacute inflammation”. Also, in data set [3] (0.75 and 1.25 mg/kg/day group males and females), the kidney findings result is recorded as “adverse, test article-related nephrosis of the kidneys”. Also, the “severely toxic dose in 10% of the animals (STD 10)” value in data set [3] (Sprague Dawley rats, IV slow bolus daily for 5 days) came out at 0.75 mg/kg/day. Besides, the “reversibility of effects on urinalysis parameters” value in data set [3] (all treatment groups) is reported as “reversible”. Also, the AUClast in data set [3] (female, Sprague Dawley, rat, in vivo, iv) is 691 ng·h/mL.

`Nc1cccc2c1CN(C1CCC(=O)NC1=O)C2=O` (stereo not shown) [lenalidomide]: the “apoptosis and cell cycle arrest” value in the data set on del(5q) clones is “induces apoptosis and cell cycle arrest”. The “patients achieving a complete response (CR)” value with del(5q) MDS (MDS-003, cytogenetic response) is given as 45%. The “patients with at least a partial cytogenetic response” value with del(5q) MDS (MDS-003) is 73%. Besides, the “median TI duration” value in the data set with del(5q) MDS (setting [4]) is 2.2 years. Further, the “patients achieved transfusion independence (TI)” value in the data set on del(5q) MDS (setting [4]) is listed as 67%. The “patients who develop resistance” value in the data set on del(5q) MDS (after 2-3 years of treatment) is on record as “approximately 50%”. Also, the median overall survival with del(5q) MDS (cytogenetic non-responders) is reported as 3.1 years; in the data set with del(5q) MDS (cytogenetic responders), 4.9 years; in the data set with del(5q) MDS (non-responders (TI)), 2 years; in the data set on del(5q) MDS (patients who reached TI) it was 4.3 years. Besides, the “median duration of TI” value was not below 1507 days in the data set on del(5q) MDS (patients with PP2Acα suppression from baseline, not reached) and 679 days in the data set with del(5q) MDS (patients without PP2Acα suppression (P=0.006, log rank)). Moreover, the “median duration of responses” value with del(5q) MDS (patients with del5q MDS) is given as 2.5 years.

(Values after patent US20220323433A2, “CLINICAL REGIMEN FOR TREATING MYELODYSPLASTIC SYNDROME WITH PHOSPHATASE INHIBITOR” (H. Lee Moffitt Cancer Center and Research Institute, Inc., priority 2016, published 2022).)
